The values below come from ChEMBL document CHEMBL1150976, “The selectivity of protein kinase inhibitors: a further update” (Biochem J, 2007).

The IC50 is the midpoint of a concentration-inhibition curve.

Assay [1] concerns the target Cyclin-dependent kinase 2/cyclin A (Homo sapiens, UniProt P24941). Description: Inhibition of CDK2-cyclinA in the presence of 20uM ATP. It counts as protein-complex assay.
For assay [2], the target named is T1, Serine/threonine-protein kinase D1 (Homo sapiens) (UniProt Q15139).
T1 sequence (whole entry): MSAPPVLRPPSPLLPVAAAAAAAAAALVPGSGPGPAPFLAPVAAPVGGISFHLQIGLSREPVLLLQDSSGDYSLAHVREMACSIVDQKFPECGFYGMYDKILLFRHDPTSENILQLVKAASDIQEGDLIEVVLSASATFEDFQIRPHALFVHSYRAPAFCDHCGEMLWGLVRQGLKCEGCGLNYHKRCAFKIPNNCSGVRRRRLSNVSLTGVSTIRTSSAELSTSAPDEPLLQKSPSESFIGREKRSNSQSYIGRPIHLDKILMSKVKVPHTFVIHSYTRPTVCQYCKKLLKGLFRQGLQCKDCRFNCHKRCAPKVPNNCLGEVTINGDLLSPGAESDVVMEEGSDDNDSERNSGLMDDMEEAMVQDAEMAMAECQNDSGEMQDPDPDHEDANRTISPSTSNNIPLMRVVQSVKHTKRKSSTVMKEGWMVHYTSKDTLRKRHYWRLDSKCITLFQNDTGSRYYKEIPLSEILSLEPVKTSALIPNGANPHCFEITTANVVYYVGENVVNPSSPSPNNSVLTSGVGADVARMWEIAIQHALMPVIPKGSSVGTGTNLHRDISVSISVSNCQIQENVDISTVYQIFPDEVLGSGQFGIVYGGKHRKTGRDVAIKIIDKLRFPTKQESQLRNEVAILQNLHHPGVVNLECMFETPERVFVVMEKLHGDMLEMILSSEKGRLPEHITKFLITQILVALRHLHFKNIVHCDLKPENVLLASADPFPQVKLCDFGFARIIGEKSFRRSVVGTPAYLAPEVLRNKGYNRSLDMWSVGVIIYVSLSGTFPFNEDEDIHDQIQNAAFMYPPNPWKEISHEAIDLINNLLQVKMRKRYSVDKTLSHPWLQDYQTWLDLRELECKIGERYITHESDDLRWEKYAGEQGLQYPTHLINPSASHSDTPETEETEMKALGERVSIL
Description: Percentage PKD1 activity remaining in the presence of 3uM inhibitor.

In assay [3] the target is Rho-associated protein kinase 2 (Homo sapiens) (UniProt O75116). Briefly: Percentage ROCK2 activity remaining in the presence of 3uM inhibitor.
Assay [4] has as its target T2, Mitogen-activated protein kinase 12 (Homo sapiens) (UniProt P53778).
T2 sequence (whole entry): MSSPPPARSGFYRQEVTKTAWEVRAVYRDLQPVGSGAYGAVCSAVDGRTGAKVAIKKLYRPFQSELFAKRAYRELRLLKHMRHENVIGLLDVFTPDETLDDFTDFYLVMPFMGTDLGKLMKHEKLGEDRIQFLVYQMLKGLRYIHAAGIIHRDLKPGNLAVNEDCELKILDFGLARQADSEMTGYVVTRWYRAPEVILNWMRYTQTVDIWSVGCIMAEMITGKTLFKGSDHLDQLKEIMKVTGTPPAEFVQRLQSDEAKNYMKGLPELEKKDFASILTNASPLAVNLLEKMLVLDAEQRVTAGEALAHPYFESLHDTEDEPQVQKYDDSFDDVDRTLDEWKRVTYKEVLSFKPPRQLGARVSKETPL
Briefly: Percentage p38-gamma activity remaining in the presence of 3uM inhibitor.

Assay [5] deals with T3, Inhibitor of nuclear factor kappa-B kinase subunit beta (Homo sapiens) (UniProt O14920).
T3 sequence (whole entry): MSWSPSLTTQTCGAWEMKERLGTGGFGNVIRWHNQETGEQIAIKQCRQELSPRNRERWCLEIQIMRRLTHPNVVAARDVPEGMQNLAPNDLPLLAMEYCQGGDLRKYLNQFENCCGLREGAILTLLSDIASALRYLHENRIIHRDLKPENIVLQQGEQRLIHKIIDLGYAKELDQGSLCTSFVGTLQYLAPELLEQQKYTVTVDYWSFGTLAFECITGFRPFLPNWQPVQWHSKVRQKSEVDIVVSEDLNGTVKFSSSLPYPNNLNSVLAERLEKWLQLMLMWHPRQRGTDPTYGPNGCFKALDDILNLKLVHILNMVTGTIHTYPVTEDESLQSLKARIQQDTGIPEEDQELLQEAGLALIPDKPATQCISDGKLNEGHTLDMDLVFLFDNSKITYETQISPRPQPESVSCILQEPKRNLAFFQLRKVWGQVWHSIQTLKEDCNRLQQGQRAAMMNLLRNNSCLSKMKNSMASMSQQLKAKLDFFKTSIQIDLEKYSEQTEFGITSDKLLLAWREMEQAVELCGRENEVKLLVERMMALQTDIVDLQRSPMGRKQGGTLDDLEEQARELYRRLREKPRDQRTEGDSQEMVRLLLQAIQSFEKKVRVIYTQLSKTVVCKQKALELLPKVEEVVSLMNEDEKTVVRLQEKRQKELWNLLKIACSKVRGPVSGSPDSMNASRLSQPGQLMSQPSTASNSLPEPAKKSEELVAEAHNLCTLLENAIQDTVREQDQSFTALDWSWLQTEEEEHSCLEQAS
Briefly: Percentage IKK-beta activity remaining in the presence of 3uM inhibitor.

Assay [6] addresses Ribosomal protein S6 kinase beta-1 (Homo sapiens, UniProt P23443). Description: Inhibition of S6K1 in the presence of 20uM ATP.
The target in assay [7] is Protein kinase C alpha type (Homo sapiens) (UniProt P17252). Briefly: Percentage PKCalpha activity remaining in the presence of 3uM inhibitor.
Assay [8] has as its target T4, Dual specificity tyrosine-phosphorylation-regulated kinase 2 (Homo sapiens) (UniProt Q92630).
T4 sequence (whole entry): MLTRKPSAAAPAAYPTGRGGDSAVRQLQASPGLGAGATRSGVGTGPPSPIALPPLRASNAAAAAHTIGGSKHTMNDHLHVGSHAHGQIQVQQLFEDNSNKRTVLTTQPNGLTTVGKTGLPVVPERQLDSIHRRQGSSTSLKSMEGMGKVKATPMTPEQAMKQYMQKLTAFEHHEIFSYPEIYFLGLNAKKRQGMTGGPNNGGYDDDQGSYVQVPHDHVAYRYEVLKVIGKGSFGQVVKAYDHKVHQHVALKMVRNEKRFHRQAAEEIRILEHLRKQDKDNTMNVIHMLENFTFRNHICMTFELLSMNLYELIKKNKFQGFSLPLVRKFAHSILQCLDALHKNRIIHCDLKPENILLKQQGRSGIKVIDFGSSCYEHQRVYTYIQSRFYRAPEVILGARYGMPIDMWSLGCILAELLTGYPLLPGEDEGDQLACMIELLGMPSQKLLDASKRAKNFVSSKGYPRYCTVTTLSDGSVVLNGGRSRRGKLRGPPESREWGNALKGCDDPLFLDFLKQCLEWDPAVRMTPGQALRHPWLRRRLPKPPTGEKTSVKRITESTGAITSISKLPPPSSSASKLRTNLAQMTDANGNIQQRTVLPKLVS
Description: Percentage DYRK2 activity remaining in the presence of 2uM inhibitor.

Assay [9] deals with MAP kinase-interacting serine/threonine-protein kinase 2 (Homo sapiens) (UniProt Q9HBH9). Description: Percentage MNK2 activity remaining in the presence of 2uM inhibitor.
Chain of MAP kinase-interacting serine/threonine-protein kinase 2 (Homo sapiens) (Q9HBH9 whole entry, looked up): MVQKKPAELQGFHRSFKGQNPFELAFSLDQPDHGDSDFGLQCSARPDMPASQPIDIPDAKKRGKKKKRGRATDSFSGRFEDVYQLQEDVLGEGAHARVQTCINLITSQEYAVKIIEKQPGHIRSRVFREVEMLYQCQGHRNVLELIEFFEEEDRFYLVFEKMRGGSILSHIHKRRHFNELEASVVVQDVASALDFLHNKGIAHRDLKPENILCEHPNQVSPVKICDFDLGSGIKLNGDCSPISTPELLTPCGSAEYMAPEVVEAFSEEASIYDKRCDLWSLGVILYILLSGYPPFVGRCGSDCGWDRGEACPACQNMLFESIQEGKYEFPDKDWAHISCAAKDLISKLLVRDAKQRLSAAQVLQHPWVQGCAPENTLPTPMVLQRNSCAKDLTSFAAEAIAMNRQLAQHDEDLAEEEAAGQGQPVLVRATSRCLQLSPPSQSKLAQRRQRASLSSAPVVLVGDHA

Chain of Ribosomal protein S6 kinase beta-1 (P23443 whole entry): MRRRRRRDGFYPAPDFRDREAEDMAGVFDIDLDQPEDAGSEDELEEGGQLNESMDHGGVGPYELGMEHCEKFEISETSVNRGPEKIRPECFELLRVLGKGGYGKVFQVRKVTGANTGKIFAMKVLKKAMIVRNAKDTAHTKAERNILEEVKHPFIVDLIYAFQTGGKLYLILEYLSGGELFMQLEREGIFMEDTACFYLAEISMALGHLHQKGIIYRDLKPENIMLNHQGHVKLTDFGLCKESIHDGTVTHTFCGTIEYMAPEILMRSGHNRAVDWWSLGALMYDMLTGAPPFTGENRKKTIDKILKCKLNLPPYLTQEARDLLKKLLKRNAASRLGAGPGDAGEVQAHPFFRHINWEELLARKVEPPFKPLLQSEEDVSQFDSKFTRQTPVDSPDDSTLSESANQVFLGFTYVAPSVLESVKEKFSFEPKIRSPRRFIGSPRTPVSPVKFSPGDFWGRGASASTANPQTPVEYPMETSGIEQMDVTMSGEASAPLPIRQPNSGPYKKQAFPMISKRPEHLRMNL
Chain of Rho-associated protein kinase 2 (Homo sapiens) (O75116 whole entry, looked up): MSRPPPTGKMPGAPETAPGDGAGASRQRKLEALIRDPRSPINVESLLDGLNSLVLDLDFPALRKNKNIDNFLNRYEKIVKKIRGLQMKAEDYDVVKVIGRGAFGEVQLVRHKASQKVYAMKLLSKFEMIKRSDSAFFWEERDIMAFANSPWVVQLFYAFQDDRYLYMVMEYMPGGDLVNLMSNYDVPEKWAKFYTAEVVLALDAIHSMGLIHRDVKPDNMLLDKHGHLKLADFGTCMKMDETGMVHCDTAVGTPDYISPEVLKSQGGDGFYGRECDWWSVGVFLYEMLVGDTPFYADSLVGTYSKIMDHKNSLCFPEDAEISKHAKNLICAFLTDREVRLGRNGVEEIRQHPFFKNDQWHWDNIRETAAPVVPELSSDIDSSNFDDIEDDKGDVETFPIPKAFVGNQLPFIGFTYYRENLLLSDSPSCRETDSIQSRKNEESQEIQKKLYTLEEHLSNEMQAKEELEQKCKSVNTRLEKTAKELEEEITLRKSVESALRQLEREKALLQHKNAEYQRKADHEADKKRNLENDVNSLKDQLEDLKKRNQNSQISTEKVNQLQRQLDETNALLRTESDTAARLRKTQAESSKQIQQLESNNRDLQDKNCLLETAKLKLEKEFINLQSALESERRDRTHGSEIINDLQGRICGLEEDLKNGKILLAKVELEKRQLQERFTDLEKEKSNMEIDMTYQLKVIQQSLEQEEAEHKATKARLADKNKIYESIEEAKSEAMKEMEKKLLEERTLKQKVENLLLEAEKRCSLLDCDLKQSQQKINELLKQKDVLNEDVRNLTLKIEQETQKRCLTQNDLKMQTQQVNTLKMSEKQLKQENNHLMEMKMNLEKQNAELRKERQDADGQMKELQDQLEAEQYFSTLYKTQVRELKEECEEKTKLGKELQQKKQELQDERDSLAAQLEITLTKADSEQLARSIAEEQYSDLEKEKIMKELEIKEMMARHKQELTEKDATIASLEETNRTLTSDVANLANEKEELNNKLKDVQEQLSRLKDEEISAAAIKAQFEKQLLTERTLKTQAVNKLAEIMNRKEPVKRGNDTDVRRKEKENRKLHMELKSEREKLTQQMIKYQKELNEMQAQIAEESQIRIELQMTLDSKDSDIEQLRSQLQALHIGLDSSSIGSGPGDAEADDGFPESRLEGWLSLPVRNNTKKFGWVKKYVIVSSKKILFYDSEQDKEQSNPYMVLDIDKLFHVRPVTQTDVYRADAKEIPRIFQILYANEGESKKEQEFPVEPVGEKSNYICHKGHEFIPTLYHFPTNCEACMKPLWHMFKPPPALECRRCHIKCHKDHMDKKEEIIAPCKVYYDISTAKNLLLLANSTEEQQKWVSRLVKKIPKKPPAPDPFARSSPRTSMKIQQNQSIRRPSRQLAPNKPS

For `CC(C)[C@H](CO)Nc1nc(Nc2cccc(Cl)c2)c2ncn(C(C)C)c2n1` [PURVALANOLA], the IC50 in assay [1] is 0.03 µM (antagonist).
`Cc1ccc(-c2c(C(=O)CF)n(CCCO)c3ncnc(N)c23)cc1`: the Activity was determined as 83% in [2]; 86% in [3]; 92% in assay [4]; 92% in [5]; 85% in assay [7]. Further, the IC50 in assay [6] was 0.95 µM (antagonist).
As to `Cn1cc(C2=C(c3ccc(Cl)cc3Cl)C(=O)NC2=O)c2ccccc21`, the Activity in assay [8] was 92%; in [9] it was 94%.
